Test results as given in patent US6583179B2, “Substituted aminoalkylamide derivatives as antagonists of follicle stimulating hormone” (Ortho-McNeil Pharmaceutical, Inc., priority 1999, dated 2003).

How the values were obtained:
[1] = target: T1, human FSH receptor (Homo sapiens, UniProt P23945); experiment: hFSHR CHO cAMP assay (rhFSHR-cLUC cells, FSH-stimulated cAMP, radioimmunoassay); assay type: cell-based; conditions: inhibition of cAMP produced by EC70 dose of FSH (4.85 nM); maximum concentration 50 μM
T1 construct: expressed in transfected cells; host or cells: Chinese Hamster Ovary cells (K-1; ATCC), line rhFSHR-cLUC
T1 sequence (P23945 18-695): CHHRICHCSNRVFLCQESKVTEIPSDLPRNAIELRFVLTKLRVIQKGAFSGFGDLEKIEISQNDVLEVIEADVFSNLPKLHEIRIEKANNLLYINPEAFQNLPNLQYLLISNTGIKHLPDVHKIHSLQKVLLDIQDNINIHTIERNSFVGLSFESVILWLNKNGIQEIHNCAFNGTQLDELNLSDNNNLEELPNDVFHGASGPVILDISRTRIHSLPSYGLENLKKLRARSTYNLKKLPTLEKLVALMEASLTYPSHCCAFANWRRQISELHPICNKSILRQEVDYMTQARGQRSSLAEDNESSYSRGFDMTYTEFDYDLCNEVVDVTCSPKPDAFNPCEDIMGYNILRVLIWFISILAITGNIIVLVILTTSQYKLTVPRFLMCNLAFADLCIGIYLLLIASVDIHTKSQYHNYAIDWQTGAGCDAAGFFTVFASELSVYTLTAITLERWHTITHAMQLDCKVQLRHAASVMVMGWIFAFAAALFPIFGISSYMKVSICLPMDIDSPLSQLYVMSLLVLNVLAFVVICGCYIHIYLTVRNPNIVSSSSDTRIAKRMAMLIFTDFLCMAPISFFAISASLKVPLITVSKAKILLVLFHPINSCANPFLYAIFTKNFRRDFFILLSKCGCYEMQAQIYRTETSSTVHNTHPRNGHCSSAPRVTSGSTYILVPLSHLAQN
From the text: Minimum Essential Medium-Alpha (MEM-alpha), fetal bovine serum (FBS), penicillin, streptomycin, geneticin, trypsin-EDTA, Hanks' Balanced Salt Solution (no Calcium chloride, Magnesium chloride, Magnesium sulfate, or phenol red; Ca-Mg free HBSS) were purchased from Gibco BRL (Gaithersburg, Md.). The cells used for the FSH bioassay (rhFSHR-cLUC) were Chinese Hamster Ovary cells (K-1; ATCC) stably transformed with human FSH receptor (pSVK-FSHr) and a cAMP luciferase reporter gene (responsive CGα-180LUC). Follicle Stimulating Hormone (Metrodin; Fertinex) was purchased from Serono, Ltd. (Norwell, Mass.).
The rhFSHR-cLUC cell cultures were maintained in MEM-Alpha supplemented with 10% heat-inactivated FBS (HIFBS), 100 U/ml penicillin, 100 μg/mL streptomycin, and included 0.1 g/L geneticin for stable cell selection.
Forty-eight hours after the cells were plated in sterile 96-well culture plates (Corning, Corning, N.Y.) the spent media was removed and 50 μl assay media (modified growth media with 2% HIFBS) containing 2 mM IBMX (3-isobutyl-1-methyl-xanthine) was added to the cells. Compounds (25 μl) in the appropriate concentration were added followed 5 minutes later by an EC70 dose of FSH (25 μl; 160 ng/ml; 4.85 nM). After 10 minutes @ 22.5° C. (room temperature) the reaction was terminated by addition of 25 μL 0.5 N hydrochloric acid to each well. The amount of cAMP produced was measured by radioimmunoassay in a FlashPlate (DuPont, Boston, Mass.). To each flash plate 60 μL flash plate buffer was added followed by 40 μL acidified cell sample or cAMP standard, followed with the addition of 100 μl ^125l-cAMP trace. The FlashPlates were sealed, incubated overnight @ room temperature, and counted in a Packard TopCount (Packard Instrument Co., Meriden, Conn.). The cAMP radioimmunoassay results were calculated using DPM conversion and log-logit transformation of % binding (Excel program).
Test compounds were solubilized in 30% dimethyl sulfoxide (DMSO) at a concentration of 10 mM before diluting to appropriate concentrations in assay medium. The final DMSO concentration in the treated cells and in the control cells was 0.75%.
For individual experiments, a set of samples were tested including a vehicle control (assay buffer), a reference compound (hFSH) at a range of concentrations designed to elicit a minimal to maximal response, and several concentrations of test compounds together with an EC70 concentration of standard (hFSH challenge). Each compound was performed in duplicates for the primary evaluation and quadruplicates for the dose-ranging experiments. The cAMP radioimmunoassay raw data (pmol) were calculated to provide average pmol cAMP produced/ml and the percent inhibition was calculated as shown below.
% Inh=[1−(Avg.pmoltest compound+standard)/(Avg.pmolstandard)]×100
EC50 values were calculated from an analysis of the concentration-inhibition data using a linear analysis of the data transformed to a log-logit format.

[2] = system: mature cycling female Wistar rats; experiment: Interruption of 4-day estrus cycle; assay type: in vivo, rat; conditions: 20 mg/kg BID oral through 2 estrus cycles; for Estradiol Concentration / Progesterone Concentration: blood on morning of estrus; for # Ovulated Eggs: eggs in the oviduct
Procedure: The estrus cycles of mature cycling female Wistar rats (250 g) were monitored for 2 consecutive estrus cycles to select animals with regular 4-day estrus cycles. The animals were randomly assigned to treatment groups on the morning of estrus. Starting on the morning of estrus and continuing through 2 estrus cycles, the animals orally dosed with vehicle or test compound at a concentration of 20 mg/kg; BID. At the end of the second estrus cycle, blood samples were collected by orbital puncture on the morning of estrus. The animals were then sacrificed, and the number of ovulated eggs in the oviduct were counted.

[3] = system: immature male Wistar rats; experiment: Effects on spermatogenesis in immature male rats; assay type: in vivo, rat; conditions: 20 mg/kg BID for 25 days; for Serum Testosterone (t = 3 hr, d = 25): 3 hr after dosing; for Mating Sperm: animals with sperm / animals
Procedure: Twenty-one day old immature male Wistar rats (Charles River) were treated with FSH antagonist at a concentration of 20 mg/kg BID for 25 days. On the penultimate day of treatment, blood samples were collected by orbital puncture immediately prior to oral dosing, and 3 hours after dosing into Vacutainers containing EDTA. On the last day of treatment, blood samples were again collected prior to time of compound administration. The concentrations of LH, FSH and testosterone were measured in the plasma. Testosterone was measured using a Coat-A-Count kit (Diagnostic Products Corp.) and luteinizing hormone and follicle stimulating hormone concentrations were measured following previously established. At the end of the treatment period, the animals were sacrificed, testes and prostates were collected and weighed, and the testes were prepared for histological examination. The presence of sperm in testes were evaluated by hematoxylin and eosin staining, and in separate slides with a BERG stain (REF, 1963).

Structure (SMILES) | EC50 [1] [nM] | Estradiol Concentration [2] | Progesterone Concentration [2] | # Ovulated Eggs [2] | Prostate Weight [3] | Testes Weight [3] | Serum Testosterone (t = 3 hr, d = 25) [3] | Mating Sperm [3]
C[C@@H](CN(CC(=O)NCc1ccc(CN)cc1)S(=O)(=O)c1ccc(-c2ccccc2Cl)cc1)c1ccccc1 [Compound 198] | 40 | 20.1 ± 4.4 | 3.6 ± 0.9 | 14.0 | 1.6 ± 0.2 | 8.8 ± 0.2 | 3.6 ± 0.6 | 3/4
Cc1ccccc1-c1ccc(S(=O)(=O)N(CC(=O)NCc2ccc(CN)cc2)C[C@@H](C)c2ccccc2)cc1 [Compound 215] | 80 | 22.2 ± 4.2 | 2.6 ± 0.6 | 16.3 | 1.8 ± 0.1 | 8.7 ± 0.5 | 4.9 ± 0.7 | 1/4
